Test results taken from patent US20240109891A1, “NOVEL SUBSTITUTED TRICYCLIC AZA-HETEROCYCLES AS SOS1 INHIBITORS” (Viva Star Biosciences (Suzhou) Co., Ltd., priority 2021, published 2024).

What was measured:
[1] = molecular target: T1, KRAS-WT and SOS1 proteins (Homo sapiens, UniProt Q07889); test: KRAS-WT/SOS1 binding assay (HTRF); conditions: Tag1-SOS1 / Tag2-KRAS-WT, 10 μM GTP, read-out: Activity Data in Kras: SOS1 Assay, Wild Type
T1 construct: purchased Cisbio 63ADK000CB15PEG
T1 sequence (Q07889 1-1333): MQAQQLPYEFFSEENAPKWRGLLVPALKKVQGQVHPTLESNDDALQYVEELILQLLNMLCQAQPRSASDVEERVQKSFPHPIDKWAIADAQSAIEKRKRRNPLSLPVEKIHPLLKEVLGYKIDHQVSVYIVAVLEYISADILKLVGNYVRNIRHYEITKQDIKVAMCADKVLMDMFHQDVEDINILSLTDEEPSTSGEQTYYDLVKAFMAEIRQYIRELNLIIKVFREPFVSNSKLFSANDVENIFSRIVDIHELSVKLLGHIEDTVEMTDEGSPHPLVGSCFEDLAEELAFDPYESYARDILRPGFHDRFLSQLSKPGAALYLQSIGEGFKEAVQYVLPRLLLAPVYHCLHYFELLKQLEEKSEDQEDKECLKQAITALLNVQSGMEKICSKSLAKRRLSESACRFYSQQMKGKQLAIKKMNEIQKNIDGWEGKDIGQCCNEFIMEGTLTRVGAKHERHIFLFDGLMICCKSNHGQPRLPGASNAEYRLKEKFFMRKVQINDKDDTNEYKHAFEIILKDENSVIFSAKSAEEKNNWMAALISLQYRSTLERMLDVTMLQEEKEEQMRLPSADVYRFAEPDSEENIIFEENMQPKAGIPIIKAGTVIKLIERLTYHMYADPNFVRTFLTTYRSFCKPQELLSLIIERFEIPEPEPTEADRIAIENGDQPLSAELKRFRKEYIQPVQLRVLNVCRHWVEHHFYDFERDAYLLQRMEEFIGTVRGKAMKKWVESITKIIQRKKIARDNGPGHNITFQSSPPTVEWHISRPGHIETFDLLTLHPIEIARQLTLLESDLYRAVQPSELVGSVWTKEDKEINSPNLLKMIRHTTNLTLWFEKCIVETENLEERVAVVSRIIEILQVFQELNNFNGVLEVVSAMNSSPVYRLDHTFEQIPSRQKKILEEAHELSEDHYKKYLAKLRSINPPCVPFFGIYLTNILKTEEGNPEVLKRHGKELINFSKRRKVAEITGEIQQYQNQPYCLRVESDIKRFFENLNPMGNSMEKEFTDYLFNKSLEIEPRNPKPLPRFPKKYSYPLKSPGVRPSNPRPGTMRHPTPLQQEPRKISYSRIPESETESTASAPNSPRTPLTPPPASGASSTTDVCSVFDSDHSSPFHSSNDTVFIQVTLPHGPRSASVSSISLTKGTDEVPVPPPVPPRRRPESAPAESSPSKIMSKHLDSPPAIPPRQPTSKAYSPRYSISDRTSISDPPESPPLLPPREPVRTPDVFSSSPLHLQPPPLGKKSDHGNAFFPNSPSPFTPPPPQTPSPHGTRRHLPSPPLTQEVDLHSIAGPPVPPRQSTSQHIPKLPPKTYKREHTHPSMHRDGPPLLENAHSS
Experimental: (§1) KRAS-WT (or G12C/G12D/G12V)/SOS1 Binding Assay
(§2) Low IC50 values are indicative of high potency of the SOS1 inhibitor compounds in this assay setting.
(§3) The KRAS-WT (or G12C/G12D/G12V)/SOS1 binding assay is performed using an assay kit (Cisbio, Cat #63ADK000CB15PEG or 63ADK000CB16PEG/63ADK000CB17PEG/63ADK000CB18PEG) according to the procedure recommended by the manufacturer. • 1) Thaw and prepare the working solution of Tag1-SOS1 protein and Tag2-KRAS-WT (or G12C/G12D/G12V) protein with final concentration of 10 μM GTP (Sigma, Cat #V900868). • 2) Thaw and prepare the working solution of anti-Tag1-Tb^3+ anti-Tag2-XL665. • 3) Dispense 2 μL of serially diluted compound, 4 μL of Tag1-SOS1 protein and 4 μL of Tag2-KRAS-WT (or G12C/G12D/G12V) protein with GTP into a ProxiPlate-384 Plus, white 384-shallow well microplate (PerkinElmer, Cat #6008280). • 4) Incubate the plate for 15 minutes at room temperature. • 5) Dispense 10 μL of pre-mixed anti-Tag1-Tb^3+ and anti-Tag2-XL665 into the plate. • 6) Seal the plate and incubate for 2 hours at room temperature. • 7) Remove the plate sealer and read on PHERAstar FS (BMG LABTECH, PHERAstar FS). • 8) Calculate the ratio of the acceptor and donor emission signals for each individual well using the following equation.
(§4) [formula] • 9) IC50 values are fitted and calculated by HTRF signal values and log of compound concentrations to nonlinear regression [Log (inhibitor) vs. Response−Variable Slope (four parameters)] using the GraphPad Prism 8.0.

[2] = molecular target: T2, KRAS G12D and SOS1 proteins (Homo sapiens, UniProt Q07889); test: KRAS-G12D/SOS1 binding assay (HTRF); conditions: Tag1-SOS1 / Tag2-KRAS G12D, 10 μM GTP
T2 construct: purchased Cisbio 63ADK000CB17PEG
T2 sequence (Q07889 1-1333): T1 sequence (Q07889 1-1333)
Experimental: as §1, §2, §3, §4

Compound	IC50 [1] [nM]	IC50 [2] [nM]
CC(=O)N1CCC(Oc2cc3c(N[C@H](C)c4cccc5c4CCC5(F)F)nc(C)nc3c3cnn(C)c23)CC1 [Example 40, (R)-1-(4-((4-((1-(1,1-difluoro-2,3-dihydro-1H-inden-4-yl)ethyl)amino)-2,7-dimethyl-7H-pyrazolo[3,4-h]quinazolin-6-yl)oxy)piperidin-1-yl)ethan-1-one]	< 100	< 100
Cc1nc(N[C@H](C)c2cccc(C(F)(F)CO)c2)c2cc(O[C@H]3CCN(C)C3)c3c(cnn3C)c2n1 [Example 41, 2-(3-((R)-1-((2,7-dimethyl-6-(((S)-1-methylpyrrolidin-3-yl)oxy)-7H-pyrazolo[3,4-h]quinazolin-4-yl)amino)ethyl)phenyl)-2,2-difluoroethan-1-ol]	< 100	< 100
Cc1nc(N[C@H](C)c2cccc(C(F)(F)CO)c2)c2cc(N3CCC(O)C3)c3c(cnn3C)c2n1 (stereo partly drawn) [Example 42, 1-(4-{[(1R)-1-[3-(1,1-difluoro-2-hydroxyethyl)phenyl]ethyl]amino}-2,7-dimethyl-7H-pyrazolo[3,4-h]quinazolin-6-y)pyrrolidin-3-ol]	< 100	< 100
Cc1nc(N[C@H](C)c2cccc(C(F)(F)CO)c2)c2cc(N3CC[C@H](O)C3)c3c(cnn3C)c2n1 [Example 43, (3S)-1-(4-{[(1R)-1-[3-(1,1-difluoro-2-hydroxyethyl)phenyl]ethyl]amino}-2,7-dimethyl-7H-pyrazolo[3,4-h]quinazolin-6-yl)pyrrolidin-3-ol]	< 100	< 100
Cc1nc(N[C@H](C)c2cccc(C(F)(F)CO)c2)c2cc(N3CC[C@@H](O)C3)c3c(cnn3C)c2n1 [Example 44, (3R)-1-(4-{[(1R)-1-[3-(1,1-difluoro-2-hydroxyethyl)phenyl]ethyl]amino}-2,7-dimethyl-7H-pyrazolo[3,4-h]quinazolin-6-yl)pyrrolidin-3-ol]	< 100	< 100
COc1cc2c(cc1C1CCN(C(C)=O)CC1)c(N[C@H](C)c1cccc3c1CCC3(F)F)nc1ccnn12 [Example 52, (R)-1-(4-(5-((1-(1,1-difluoro-2,3-dihydro-1H-inden-4-yl)ethyl)amino)-8-methoxypyrazolo[1,5-a]quinazolin-7-yl)piperidin-1-yl)ethanone]	100 to 500	100 to 500
COc1cc2c(cc1C1CCN(S(C)(=O)=O)CC1)c(N[C@H](C)c1cccc3c1CCC3(F)F)nc1ccnn12 [Example 53, (R)-N-(1-(1,1-difluoro-2,3-dihydro-1H-inden-4-yl)ethyl)-8-methoxy-7-(1-(methylsulfonyl)piperidin-4-yl)pyrazolo[1,5-a]quinazolin-5-amine]	100 to 500	100 to 500
COc1cc2c(cc1O[C@H]1CCOC1)c(N[C@H](C)c1cccc(C(F)(F)F)c1)nc1ccnn12 [Example 54, 8-methoxy-7-[(3 S)-oxolan-3-yloxy]-N-[(1R)-1-[3-(trifluoromethyl)phenyl]ethyl]pyrazolo[1,5-α]quinazolin-5-amine]	500 to 5000	500 to 5000
COc1cc2c(cc1O[C@H]1CCOC1)c(N[C@H](C)c1cc(N)cc(C(F)(F)F)c1)nc1ccnn12 [Example 55, N-[(1R)-1-[3-amino-5-(trifluoromethyl)phenyl]ethyl]-8-methoxy-7-[(3S)-oxolan-3-yloxy]pyrazolo[1,5-a]quinazolin-5-amine]	100 to 500	100 to 500
COc1cc2c(cc1O[C@H]1CCOC1)c(N[C@H](C)c1cccc(C(F)(F)F)c1)nc1cncn12 [Example 56, 8-methoxy-7-(((S)-tetrahydrofuran-3-yl)oxy)-N—((R)-1-(3-(trifluoromethyl)phenyl)ethyl)imidazo[1,5-a]quinazolin-5-amine]	500 to 5000	500 to 5000
COc1cc2c(cc1O[C@H]1CCOC1)c(N[C@H](C)c1cc(N)cc(C(F)(F)F)c1)nc1cncn12 [Example 57, N—((R)-1-(3-amino-5-(trifluoromethyl)phenyl)ethyl)-8-methoxy-7-(((S)-tetrahydrofuran-3-yl)oxy)imidazo[1,5-a]quinazolin-5-amine]	100 to 500	100 to 500
COc1cc2c(cc1O[C@H]1CCOC1)c(N[C@H](C)c1cccc(C(F)(F)F)c1)nc1nccn12 [Example 58, 8-methoxy-7-(((S)-tetrahydrofuran-3-yl)oxy)-N—((R)-1-(3-(trifluoromethyl)phenyl)ethyl)imidazo[1,2-a]quinazolin-5-amine]	< 100	< 100
C[C@@H](Nc1nc2ccnn2c2cc(=O)n(C3(C)CC3)cc12)c1cccc(C(F)(F)CO)c1 [Example 61, (R)-5-((1-(3-(1,1-difluoro-2-hydroxyethyl)phenyl)ethyl)amino)-7-(1-methylcyclopropyl)pyrazolo[1,5-a]pyrido[3,4-e]pyrimidin-8(7H)-one]	< 100	< 100
C[C@@H](Nc1nc2ccnn2c2cc(=O)n(C3(C)CC3)cc12)c1cccc2c1CCC2(F)F [Example 62, (R)-5-((1-(1,1-difluoro-2,3-dihydro-1H-inden-4-yl)ethyl)amino)-7-(1-methylcyclopropyl)pyrazolo[1,5-a]pyrido[3,4-e]pyrimidin-8(7H)-one]	< 100	< 100
Cc1c([C@@H](C)Nc2nc3ccnn3c3cc(=O)n(C4(C)CC4)cc23)cccc1C(F)(F)F [Example 63, (R)-5-((1-(2-methyl-3-(trifluoromethyl)phenyl)ethyl)amino)-7-(1-methylcyclopropyl)pyrazolo[1,5-a]pyrido[3,4-e]pyrimidin-8(7H)-one]	< 100	< 100
C[C@@H](Nc1nc2ccnn2c2cc(=O)n(C3(C)CC3)cc12)c1cccc(C(C)(F)F)c1F [Example 64, (R)-5-((1-(3-(1,1-difluoroethyl)-2-fluorophenyl)ethyl)amino)-7-(1-methylcyclopropyl)pyrazolo[1,5-a]pyrido[3,4-e]pyrimidin-8(7H)-one]	< 100	< 100
C[C@@H](Nc1nc2ccnn2c2cc(=O)n(C3(C)CC3)cc12)c1cccc(C(F)(F)F)n1 [Example 65, (R)-7-(1-methylcyclopropyl)-5-((1-(6-(trifluoromethyl)pyridin-2-yl)ethyl)amino)pyrazolo[1,5-a]pyrido[3,4-e]pyrimidin-8(7H)-one]	500 to 5000	500 to 5000
C[C@@H](Nc1nc2ccnn2c2cc(=O)n(C3CC(F)(F)C3)cc12)c1cccc(C(F)(F)CO)c1 [Example 66, (R)-5-((1-(3-(1,1-difluoro-2-hydroxyethyl)phenyl)ethyl)amino)-7-(3,3-difluorocyclobutyl)pyrazolo[1,5-a]pyrido[3,4-e]pyrimidin-8(7H)-one]	< 100	< 100
